{
  "source": "patent US20230110757A1",
  "about": "“METHODS FOR TREATING ANIMALS, FEED, DRINKING WATER, WASH WATER, PROCESSING EQUIPMENT, PACKAGING MATERIALS, AND FOOD PRODUCTS” (EVOQ NANO, INC., priority 2021, published 2023)",
  "system": "E. coli, KwikStik, ATCC #51813",
  "test": "Antibacterial efficacy test, RLU (ATP) counts post treatment",
  "type": "cell-based",
  "method": "An antibacterial efficacy test was carried out comparing an “Attostat” nanoparticle formulation (8 nm size) against silver nitrate and against the National Institute of Standards and Technology (NIST) Standard Nanocomposix 10 nm silver nanoparticles. The NIST nanoparticles are formed by a chemical reduction process that utilizes citrate as reducing and capping agent.\nRelative Light Unit (RLU) counts were recorded at 12 hours and 24 hours post treatment. RLU measurements were carried out using a Hygiena SystemSURE Plus V.2 SN067503 RLU meter with Hygenia AquaSnap TOTAL ATP Water Test Cat #U143 Lot #153019. Culturing media was Hardy Diagnostics Buffered Peptone Water Lot #118272. Samples were prepared with the nanoparticle treatments and then diluted with the media to provide the tested concentrations. The test organism (Microbiologics, E. coli, KwikStik, ATCC #51813, Ref #0791 K, Lot #791-1-6) was incubated in fresh Buffered Peptone Water growth media for 24 hours prior to exposure to the nanoparticle treatments.",
  "data": [
    {"smiles": "O=[N+]([O-])[O-].[Ag+]", "note": "[AgNO3 Silver Nitrate, silver nitrate]", "values": [
      {"measurement": "RLU Counts at 12 Hours Post Exposure to Nanoparticle Treatment", "setting": "0.25 ppm (mg/L)", "result": 80, "unit": "RLU"},
      {"measurement": "RLU as percentage of control at 12 Hours Post Treatment", "setting": "0.25 ppm (mg/L)", "result": 1.2, "unit": "%"},
      {"measurement": "RLU Counts at 24 Hours Post Exposure to Nanoparticle Treatment", "setting": "0.25 ppm (mg/L)", "result": 25, "unit": "RLU"},
      {"measurement": "RLU as percentage of control at 24 Hours Post Treatment", "setting": "0.25 ppm (mg/L)", "result": 0.34, "unit": "%"},
      {"measurement": "RLU Counts at 12 Hours Post Exposure to Nanoparticle Treatment", "setting": "0.5 ppm (mg/L)", "result": 75, "unit": "RLU"},
      {"measurement": "RLU as percentage of control at 12 Hours Post Treatment", "setting": "0.5 ppm (mg/L)", "result": 1.1, "unit": "%"},
      {"measurement": "RLU Counts at 24 Hours Post Exposure to Nanoparticle Treatment", "setting": "0.5 ppm (mg/L)", "result": 46, "unit": "RLU"},
      {"measurement": "RLU as percentage of control at 24 Hours Post Treatment", "setting": "0.5 ppm (mg/L)", "result": 0.62, "unit": "%"},
      {"measurement": "RLU Counts at 12 Hours Post Exposure to Nanoparticle Treatment", "setting": "1.0 ppm (mg/L)", "result": 84, "unit": "RLU"},
      {"measurement": "RLU as percentage of control at 12 Hours Post Treatment", "setting": "1.0 ppm (mg/L)", "result": 1.3, "unit": "%"},
      {"measurement": "RLU Counts at 24 Hours Post Exposure to Nanoparticle Treatment", "setting": "1.0 ppm (mg/L)", "result": 30, "unit": "RLU"},
      {"measurement": "RLU as percentage of control at 24 Hours Post Treatment", "setting": "1.0 ppm (mg/L)", "result": 0.41, "unit": "%"}
    ]}
  ]
}
